Measurements taken from the SangsterLogP compilation.

experiment: method code SF, from DOI: 10.1016/0223-5234(90)90118-m

| Structure (SMILES) | logP |
| --- | --- |
| O=C(Nc1ccc2nn(C3CCCC3)nc2c1)c1ccc(C(F)(F)F)cc1 | 4.95 |
| O=C(Nc1ccc2nn(C3CCCC3)nc2c1)c1ccccc1 | 3.85 |
| O=C(Nc1ccc2nn(C3CCCC3)nc2c1)c1ccc([N+](=O)[O-])cc1 | 3.75 |
| COc1ccc(C(=O)Nc2ccc3nn(C4CCCC4)nc3c2)cc1 | 4.03 |

Further lines, results first:

| logP | Structure (SMILES) |
| --- | --- |
| 2.44 | CS(=O)(=O)Nc1ccc2nn(C3CCCC3)nc2c1 |
| 4.28 | CC(C)COC(=O)Nc1ccc2nn(C3CCCC3)nc2c1 |
| 4.12 | O=C(Nc1ccc2nn(C3CCCC3)nc2c1)C(Cl)(Cl)Cl |
| 3.43 | CCOC(=O)Nc1ccc2nn(C3CCCC3)nc2c1 |
| 2.78 | O=C(CCl)Nc1ccc2nn(C3CCCC3)nc2c1 |
| 2.45 | CC(=O)Nc1ccc2nn(C3CCCC3)nc2c1 |

experiment: not given

| Structure (SMILES) | logP |
| --- | --- |
| O=[N+]([O-])c1ccc(S(=O)(=O)Nc2ccc3nn(C4CCCC4)nc3c2)cc1 | 3.82 |
| COc1cc(C(=O)Nc2ccc3nn(C4CCCC4)nc3c2)cc(OC)c1OC | 3.87 |
| CC(=O)N(C(C)=O)c1ccc2nn(C3CCCC3)nc2c1 | 2.73 |
| Cc1ccc(S(=O)(=O)Nc2ccc3nn(C4CCCC4)nc3c2)cc1 | 3.91 |
| CC(C)(C)C(=O)c1cccc2nn(C3CCCC3)nc12 | 3.4 |

Other lines, results leading:

| logP | Structure (SMILES) |
| --- | --- |
| 3.4 | O=C(Nc1ccc2nn(C3CCCC3)nc2c1)C(Cl)Cl |
| 4.11 | O=C(Nc1ccc2nn(C3CCCC3)nc2c1)c1ccc(Cl)cc1 |
| 5.32 | O=C(Nc1ccc2nn(C3CCCC3)nc2c1)c1ccc(Cl)c(Cl)c1 |
